Assay results: patent publication US20240255506A1, “PAIRED-CELL PROFILING SYSTEMS FOR HIGH-THROUGHPUT SCREENING SYNCYTIUM FORMATION” (priority 2023, published 2024)

Columns and labels:
[1] = tested on: SARS-COV-2 D614G; conditions: hamster, in vivo; for infectious SARS-COV-2 titer in lung tissues (plaque assay) / virus RdRp gene expression level in lung tissues: ip
[2] = tested on: SARS-COV-2 D614G virus; format: cell-based; conditions: both cell lysate and supernatant samples after virus infection; Vero E6, Vero E6-TMPRSS2 and A549-ACE2 cells
[3] = tested on: SARS-COV-2 D614G live virus; format: cell-based; conditions: Vero E6 and Vero E6-TMPRSS2 GFP1-10/GFP11 cells; CPZ 16 μM, promethazine 12.5 μM, fluvoxamine 12.5 μM, 24 h
[4] = tested on: SARS-COV-2 spike-induced syncytium formation in A549-ACE2 cells; format: cell-based; conditions: A549-ACE2-GFP1-10 receiver cells, HEK293T-GFP-11 sender cells expressing WT D614G spike; drugs added 3 h after seeding, imaged after 24 h; vs DMSO-treated control
[5] = tested on: SARS-COV-2 spike-induced syncytium formation in Vero E6 cells; format: cell-based; conditions: Vero E6-GFP1-10 receiver cells, HEK293T-GFP-11 sender cells expressing WT D614G spike; drugs added 3 h after seeding, imaged after 24 h; vs DMSO-treated control

| SMILES | area of positivity of the SARS-COV-2 nucleocapsid protein in lung tissues [1] | body weight of the hamsters [1] | syncytium-like multinucleated cells within SARS-COV-2 nucleocapsid-positively stained lung tissues [1] | infectious SARS-COV-2 titer in lung tissues (plaque assay) [1] | virus RdRp gene expression level in lung tissues [1] | expression levels of SARS-COV-2 RNA-dependent RNA polymerase (RdRp) [2] | syncytium formation in SARS-COV-2 D614G-infected cells [3] | syncytium formation [4] | syncytium formation [5] |
| --- | --- | --- | --- | --- | --- | --- | --- | --- | --- |
| CN(C)CCCN1c2ccccc2Sc2ccc(Cl)cc21 [chlorpromazine] | reduced | no significant change | less syncytium-like multinucleated cells were detected | reduced | reduced | greatly reduced | inhibited syncytium formation | greatly impeded syncytium formation | greatly impeded syncytium formation |
| COCCCC/C(=N\OCCN)c1ccc(C(F)(F)F)cc1 [fluvoxamine] | reduced | no significant change | less syncytium-like multinucleated cells were detected | reduced | reduced | greatly reduced | inhibited syncytium formation | greatly impeded syncytium formation | greatly impeded syncytium formation |
| CC(CN1c2ccccc2Sc2ccccc21)N(C)C (stereo not shown) [promethazine] |  |  |  |  |  | greatly reduced | inhibited syncytium formation | greatly impeded syncytium formation | greatly impeded syncytium formation |
